Measurements published in patent publication US12336991B2, “Factor XIIA inhibitors” (UNIVERSITY OF LEEDS, priority 2018, dated 2025).

What was measured:
Type in all cases: biochemical
FXIIa = biological target: T1, FXIIa (Homo sapiens, UniProt P00748); test: Determination of Factor XIIa inhibition, chromogenic substrate S-2302 assay; settings: human FXIIa alpha
T1 sequence (P00748 373-615 limits assumed): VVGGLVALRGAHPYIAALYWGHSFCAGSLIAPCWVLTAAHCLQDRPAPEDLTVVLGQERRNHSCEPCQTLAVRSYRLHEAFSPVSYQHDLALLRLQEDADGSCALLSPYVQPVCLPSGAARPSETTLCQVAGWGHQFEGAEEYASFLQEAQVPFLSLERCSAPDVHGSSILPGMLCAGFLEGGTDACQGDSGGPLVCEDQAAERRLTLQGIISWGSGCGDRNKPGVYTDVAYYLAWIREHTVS
T1 sequence (P00748 20-372 partner limits assumed): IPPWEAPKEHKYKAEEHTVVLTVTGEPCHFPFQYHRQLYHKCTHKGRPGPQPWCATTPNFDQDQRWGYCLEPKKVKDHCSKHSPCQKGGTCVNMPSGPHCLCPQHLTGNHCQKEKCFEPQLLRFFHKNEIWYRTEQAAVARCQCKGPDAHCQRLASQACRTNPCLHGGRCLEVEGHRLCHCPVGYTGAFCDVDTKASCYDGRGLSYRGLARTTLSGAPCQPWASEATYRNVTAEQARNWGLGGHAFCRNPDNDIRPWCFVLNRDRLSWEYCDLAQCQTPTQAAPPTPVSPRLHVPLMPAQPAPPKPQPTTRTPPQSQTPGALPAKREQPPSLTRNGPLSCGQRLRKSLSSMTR
Summary of the method: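 FXIIa (10 nM) preincubated with compound 10 min at 37° C. in 50 mM Tris, 137 mM NaCl pH 7.4, 5% DMSO, top concentration 500 μM, then S-2302 added ([…]). Absorbance at 405 nm read kinetically for 3 h; IC50 from initial rates, converted to Ki by Cheng-Prusoff.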

thrombin = biological target: T2, thrombin (Homo sapiens, UniProt P00734); test: Determination of selectivity: thrombin inhibition, chromogenic substrate GPR assay; settings: fold selectivity for FXIIa over thrombin
T2 construct: FXa (5 nM) and thrombin (5 nM)
Summary of the method: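 Thrombin (5 nM) preincubated with compound 10 min at 37 °C in 50 mM Tris, 137 mM NaCl, pH 7.4, 5% DMSO, then GPR substrate ([…]) added. Absorbance at 405 nm read kinetically for 3 h; IC50 from initial rates, converted to Ki via Ki=IC50/(1+[S]/Km).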

FXa = FXa (Homo sapiens, UniProt P00742); test: Determination of selectivity: FXa inhibition, chromogenic substrate S2765 assay; settings: fold selectivity for FXIIa over FXa
FXa, sequence (P00742 235-488 limits assumed): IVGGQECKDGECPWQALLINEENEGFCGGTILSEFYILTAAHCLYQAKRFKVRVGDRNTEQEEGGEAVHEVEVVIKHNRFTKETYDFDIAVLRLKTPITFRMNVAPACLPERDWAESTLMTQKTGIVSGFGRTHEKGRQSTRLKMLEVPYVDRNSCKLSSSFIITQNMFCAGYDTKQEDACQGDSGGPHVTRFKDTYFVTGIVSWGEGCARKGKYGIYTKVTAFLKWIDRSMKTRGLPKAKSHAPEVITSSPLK
FXa, sequence (P00742 41-179 partner limits assumed): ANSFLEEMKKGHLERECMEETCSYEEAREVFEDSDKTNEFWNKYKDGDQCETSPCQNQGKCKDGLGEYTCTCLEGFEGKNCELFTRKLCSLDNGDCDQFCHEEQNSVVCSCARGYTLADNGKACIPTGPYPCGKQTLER
Summary of the method: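 Human FXa (5 nM) preincubated with compound (top 500 μM, 5% DMSO) 10 min at 37 °C in 50 mM Tris, 137 mM NaCl pH 7.4, then S2765 ([…]) added; A405 kinetics over 3 h at 37 °C. IC50 from initial rates, converted to Ki via Cheng-Prusoff.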

Row | SMILES | Ki (FXIIa) [nM] | FXa (human)/FXIIa alpha (human) (FXa) | Thrombin (human)/FXIIa alpha (human) (thrombin)
1 | Cn1ccnc1CC1C[C@@H](C(=O)NCc2ccc3c(c2)nnn3C)N(C(=O)[C@H](N)CCC(=O)N2CCCC2)C1 (stereo partly drawn) [Example M05297] | 200 to 2000 | ∘∘∘ | +++ (fold selectivity values greater than 100)
2 | COc1ccc(CC2C[C@@H](C(=O)NCc3ccc4c(c3)nnn4C)N(C(=O)[C@H](N)CCC(=O)N3CCCC3)C2)cc1Cl (stereo partly drawn) [Example M05298] | < 200 | ∘∘∘ | +++ (fold selectivity values greater than 100)
3 | COc1cccc(CC2C[C@@H](C(=O)NCc3ccc4c(c3)nnn4C)N(C(=O)[C@H](N)CCC(=O)N3CCCC3)C2)c1 (stereo partly drawn) [Example M05300] | 200 to 2000 | ∘∘∘ | +++ (fold selectivity values greater than 100)
4 | Cn1nnc2cc(CNC(=O)[C@@H]3CC(Cc4ccnc(C(F)(F)F)c4)CN3C(=O)[C@H](N)CCC(=O)N3CCCC3)ccc21 (stereo partly drawn) [Example M05303] | 200 to 2000 | ∘∘∘ | ++ (fold selectivity value of 10 to 100)
5 | COc1cncc(CC2C[C@@H](C(=O)NCc3ccc4c(c3)nnn4C)N(C(=O)[C@H](N)CCC(=O)N3CCCC3)C2)c1 (stereo partly drawn) [Example M05304] | 200 to 2000 | ∘∘∘ | +++ (fold selectivity values greater than 100)
6 | Cn1nnc2cc(CNC(=O)[C@@H]3CCCN3C(=O)[C@H](N)CCC(=O)N3CCCC3)ccc21 [Example M05308] | > 2000 | ∘∘ | ++ (fold selectivity value of 10 to 100)
7 | Cn1nnc2cc(CNC(=O)[C@@H]3CC(Cc4ccnc(F)c4)CN3C(=O)[C@H](N)CCC(=O)N3CCCC3)ccc21 (stereo partly drawn) [Example M05314] | 200 to 2000 | ∘∘∘ | ++ (fold selectivity value of 10 to 100)
8 | Cn1nnc2cc(CNC(=O)[C@@H]3CC(Cc4ccnc(F)c4)CN3C(=O)[C@H](N)CCC(=O)N3CCCC3)ccc21 (stereo partly drawn) [Example M05315] | > 2000 | ∘∘ | ++ (fold selectivity value of 10 to 100)
9 | Cn1nnc2cc(CNC(=O)[C@@H]3C[C@@H](Cc4cccc(Br)c4)CN3C(=O)[C@H](N)CCC(=O)N3CCCC3)ccc21 [Example M05317] | < 200 | ∘∘∘ | +++ (fold selectivity values greater than 100)
10 | Cn1nnc2cc(CNC(=O)[C@]3(C)CCCN3C(=O)[C@H](N)CCC(=O)N3CCCC3)ccc21 [Example M05318] | > 2000 | ∘∘ | + (fold selectivity values less than 10)
11 | Cn1nnc2cc(CNC(=O)[C@@H]3CC(Cc4cccc(C#N)c4)CN3C(=O)[C@H](N)CCC(=O)N3CCCC3)ccc21 (stereo partly drawn) [Example M05319] | 200 to 2000 | ∘∘∘ | +++ (fold selectivity values greater than 100)
12 | Cn1nnc2cc(CNC(=O)[C@@H]3CC(Cc4ccccc4C#N)CN3C(=O)[C@H](N)CCC(=O)N3CCCC3)ccc21 (stereo partly drawn) [Example M05320] | < 200 | ∘∘∘ | +++ (fold selectivity values greater than 100)
13 | Cn1cc(-c2cccc(C[C@@H]3C[C@@H](C(=O)NCc4ccc5c(c4)nnn5C)N(C(=O)[C@H](N)CCC(=O)N4CCCC4)C3)c2)cn1 [Example M05330] | 200 to 2000 | ∘∘∘ | +++ (fold selectivity values greater than 100)

The next lines start with results.

Row | Ki (FXIIa) [nM] | FXa (human)/FXIIa alpha (human) (FXa) | SMILES | Thrombin (human)/FXIIa alpha (human) (thrombin)
14 | 200 to 2000 | ∘∘∘ | COc1ccc(C[C@@H]2C[C@@H](C(=O)NCc3ccc4c(c3)nnn4C)N(C(=O)[C@H](N)CCc3ccccc3)C2)cc1 [Example M05302] | +++ (fold selectivity values greater than 100)
15 | < 200 | ∘∘∘ | Cn1nnc2cc(CNC(=O)[C@@H]3CC(Cc4ccc(OC(F)(F)F)cc4)CN3C(=O)[C@H](N)CCC(=O)N3CCCC3)ccc21 (stereo partly drawn) [Example M05306, (S)-1-((R)-2-Amino-5-oxo-5-pyrrolidin-1-yl-pentanoyl)-4-(4-trifluoromethoxy-benzyl)-pyrrolidine-2-carboxylicacid (1-methyl-1H-benzotriazol-5-ylmethyl)-amide] | +++ (fold selectivity values greater than 100)
16 | 200 to 2000 | ∘∘∘ | Cn1nnc2cc(CNC(=O)[C@@H]3CC(Cc4ccc(C(F)(F)F)cc4)CN3C(=O)[C@H](N)CCC(=O)N3CCCC3)ccc21 (stereo partly drawn) [Example M05309] | +++ (fold selectivity values greater than 100)
17 | 200 to 2000 | ∘∘∘ | Cn1nnc2cc(CNC(=O)[C@@H]3CC(Cc4ccc(C#N)cc4)CN3C(=O)[C@H](N)CCC(=O)N3CCCC3)ccc21 (stereo partly drawn) [Example M05312] | +++ (fold selectivity values greater than 100)
18 | < 200 | ∘∘∘ | Cn1nnc2cc(CNC(=O)[C@@H]3C[C@@H](Cc4cccc(-c5ccncc5)c4)CN3C(=O)[C@H](N)CCC(=O)N3CCCC3)ccc21 [Example M05323] | +++ (fold selectivity values greater than 100)
19 | > 2000 | ∘∘ | Cn1nnc2cc(CNC(=O)[C@@H]3C[C@@H](Cc4ccc(F)cc4)CN3C(=O)C3C[C@@H](c4ccccc4)CN3)ccc21 (stereo partly drawn) [Example M05324] | ++ (fold selectivity value of 10 to 100)
20 | > 2000 | ∘∘ | Cn1nnc2cc(CNC(=O)[C@@H]3C[C@@H](Cc4ccc(F)c(F)c4)CN3C(=O)C3C[C@@H](c4ccccc4)CN3)ccc21 (stereo partly drawn) [Example M05325] | ++ (fold selectivity value of 10 to 100)
21 | < 200 | ∘∘∘ | Cn1nnc2cc(CNC(=O)[C@@H]3C[C@@H](Cc4ccc(Br)cc4)CN3C(=O)[C@H](N)CCC(=O)N3CCCC3)ccc21 [Example M05326] | +++ (fold selectivity values greater than 100)
22 | > 2000 | ∘ | Cn1nnc2cc(CNC(=O)[C@@H]3C[C@@H](Cc4cccc(F)c4)CN3C(=O)[C@H]3C[C@@H](c4ccccc4)CN3)ccc21 [Example M05327] | ++ (fold selectivity value of 10 to 100)
23 | 200 to 2000 | ∘∘∘ | Cc1ccc(C[C@@H]2C[C@@H](C(=O)NCc3ccc4c(c3)nnn4C)N(C(=O)[C@H]3C[C@@H](c4ccccc4)CN3)C2)cc1 [Example M05328] | ++ (fold selectivity value of 10 to 100)
24 | > 2000 | ∘∘ | Cn1nnc2cc(CNC(=O)[C@@H]3CC(Cc4ccccc4Br)CN3C(=O)[C@H]3C[C@@H](c4ccccc4)CN3)ccc21 (stereo partly drawn) [Example M05329] | ++ (fold selectivity value of 10 to 100)
25 | > 2000 | ∘∘ | Cn1nnc2cc(CNC(=O)[C@@H]3C[C@@H](Cc4ccccc4F)CN3C(=O)[C@H]3C[C@@H](c4ccccc4)CN3)ccc21 [Example M05332] | ++ (fold selectivity value of 10 to 100)
